Melting point data for 91 molecules are collected here from a melting point compilation (Tetko et al.; mined from patent text by program, amines drawn as free bases though some values may be those of a salt).

SMILES strings stand for the structures.

Broadly, the melting point is the temperature of the solid-liquid transition. Molecule `CCN(CC)CCNC(=O)c1ccccc1NC(=O)COc1ccc(Cl)cc1` yielded a melting point of 109 °C.

`N=C(Nc1ccccc1-c1ccccc1)N1CCCC(O)C1` (stereo unspecified) gave a melting point of 144 to 145 °C.

Regarding `Cc1c(Br)sc(N2C(=O)c3ccccc3C2=O)c1C(=O)c1ccc(Cl)cc1`, the melting point is 194 to 195 °C.

In turn, `O=C1CCC(c2ccc(C(=O)Nc3ccccc3F)cc2)=NN1` yielded a melting point of 242 to 244 °C.

Molecule `Cc1nc(-n2cc(Cc3ccccc3)nn2)sc1C(=O)NCc1ccccc1` displayed a melting point of 139 to 141 °C.

In the case of `Oc1cc(N2CCCCC2)c(Cl)cc1CCBr`, the melting point was 115 to 116 °C.

Turning to `CN(C)SN(C)C(=O)ON=C1SCC(=O)NC1(C)C`, the melting point lay within 165 to 167 °C.

In turn, `CCN1CCN(c2cc3ccccc3c(=O)[nH]2)C[C@@H]1CO` showed a melting point of 171 to 173 °C.

Regarding `N#Cc1cc(=O)n2nc(S(=O)(=O)Cc3ccccc3)sc2n1`, the melting point was in the range of 214 to 217 °C.

The molecule `CC1(C)OC(=C(C#N)C#N)C(C#N)=C1/C=C/c1ccc([N+](=O)[O-])cc1` gave a melting point of 281 °C.

With `CC1(C)C(=O)Nc2cc3[nH]c(-c4ccco4)nc3cc21`, the melting point was in the range of 311 to 316 °C.

On to `CCOC(=O)c1sc2cc(Cn3ccnc3)ccc2c1Cl`, for which the melting point was 127 to 129 °C.

`CCC12CCC3C4CCC(=O)C=C4CCC3C1C=CC2=O` (stereo unspecified): the melting point came out at 157 °C.

For `COc1ccc(C(=O)c2sccc2O)cc1`, the melting point lay within 86 to 87 °C.

With `CC(C)(C)OC(=O)N[C@@H]1C(=O)N(CCOCc2ccccc2)c2ccccc2-c2ccccc21`, the melting point is 132 to 134 °C.

Molecule `CCOC(=O)NC1(c2cccs2)CCC2(CC1)OCCO2` had a melting point of 113 to 117 °C.

Molecule `CC(=O)NC[C@H]1CN(c2ccc(N3CCC(=C(C#N)n4ccnc4C)CC3)c(F)c2)C(=O)O1` showed a melting point of 204 to 206 °C.

Take `COC(=O)C(CC1CCCC1)c1ccc(S(C)(=O)=O)c(F)c1` (stereo unspecified): the melting point fell in the range of 66 to 68 °C.

Turning to `CC(C)(C)c1nnc(S)o1`, the melting point fell in the range of 79 to 80 °C.

On to `CC(=O)c1ccc(OCCCCl)cc1O`, for which the melting point came to 74 °C.

On to `CCOC(=O)C(OCC)C(=O)Nc1ccc(Br)cc1` (stereo unspecified), for which the melting point lay in the range of 62 to 64 °C.

As for `O=Cc1ccc2c(c1)Cc1cc(Br)ccc1-2`, the melting point was 161 to 170 °C.

Turning to `CC(C)(C)N(NC(=O)c1ccccn1)C(=O)c1ccccc1[N+](=O)[O-]`, the melting point was in the range of 137 to 140 °C.

On to `C=CCNc1nc(NCC=C)nc(N2CCN(C(=S)n3ccnc3)CC2)n1`, for which the melting point fell in the range of 124 to 127 °C.

The molecule `Cc1nc(N)c(C(N)=S)s1` gave a melting point of 209 to 213 °C.

With `CC(C)c1ccc(C(=O)C2=C(O)C(=O)N(c3ncc(Sc4ccc([N+](=O)[O-])cc4)s3)C2c2ccc(OC(F)(F)F)cc2)cc1` (stereo unspecified), the melting point amounted to 238 °C.

For the molecule `CNc1ccc(C=Cc2ccc(N)cc2)cc1`, the melting point lay in the range of 144 to 145 °C.

The molecule `O=C1Nc2ccc(Br)cc2C2(c3ccccn3)OCCN12` (stereo unspecified) gave a melting point of 241 to 242 °C.

`O=C(OCc1ccccc1)c1cc2cc([N+](=O)[O-])ccc2[nH]1` came in with a melting point of 192 °C.

In turn, `CCCCCCOc1ccc2c(ccc3nc(OCCCCCC)ccc32)n1` came in with a melting point of 91 °C.

`CCCCOCCOc1ccc(-c2ccc3c(c2)C=C(C(=O)Nc2ccc(S(=O)Cc4nncn4CCCC)cc2)CCN3CC(C)C)cc1` (stereo unspecified): the melting point was 178 to 180 °C.

With `NC(=O)c1ccc(-c2ccc3nnn(Cc4ccc5ncccc5c4)c3n2)cc1F`, the melting point was 198 to 200 °C.

Take `CC(C)CC(NC(=O)C(Cc1c[nH]cn1)NC(=O)C(CC(=O)NCCc1ccccc1)Cc1cccc2ccccc12)C(O)C(=O)OCc1ccccc1` (mixture of isomers): the melting point was in the range of 81 to 86 °C.

As for `COc1ccc(-c2nc(-c3cccn3CC(=O)OCCC(C)C)sc2-c2ccc(OC)cc2)cc1`, the melting point was 98.5 to 102 °C.

The molecule `Cc1c(NC(=O)c2ccc(-c3ccc(F)c(F)c3)cc2)ccc2cc(CN3CCCC3)cnc12` displayed a melting point of 199 to 201 °C.

As to `Oc1ncc(-c2ccccc2Cl)cn1`, the melting point lay within 232 to 233 °C.

The molecule `O=C(O)C1C=CCn2c(=O)n(CCCl)c(=O)n21` (stereo unspecified) showed a melting point of 150 to 151 °C.

Turning to `COc1cc2c(cc1NN)oc1ccccc12`, the melting point lay within 113 to 115 °C.

In turn, `COC(=O)c1ccc(Cn2c(=O)c(C)c3sc(C(=O)NCc4cccc(F)c4)cn3c2=O)cc1` returned a melting point of 209 to 211 °C.

For `CC(=O)NC(C(=O)Nc1ccc(C(=O)O)cc1)c1ccc2c(c1)C(C)(C)CCC2(C)C` (stereo unspecified), the melting point was 258 to 259 °C.

For the molecule `O=C(Nc1ccc(Cl)cc1)NS(=O)(=O)c1ccc2c(c1)CCCC2`, the melting point fell in the range of 163 to 165 °C.

Turning to `N#Cc1nn(-c2c(Cl)cc(C(F)(F)F)cc2Cl)c(-n2cccn2)c1S(=O)(=O)C(F)(F)F`, the melting point lay within 191 to 193 °C.

Take `O=C1NCC(C(F)(F)F)C(=O)N1c1ccccc1` (stereo unspecified): the melting point lay within 215 to 216 °C.

The molecule `Nc1cccc2c(=O)[nH]sc12` showed a melting point of 161 to 165 °C.

With `CCCN(c1ccccc1)c1nc(C)nc(SC)c1[N+](=O)[O-]`, the melting point is 117 to 119 °C.

On to `CN1CCC(OC(=O)N2c3ccccc3NC(=O)c3ccccc32)CC1`, for which the melting point lay within 203 to 204 °C.

The molecule `CC1(C)CC(c2ccccn2)c2cc(C#N)ccc2O1` (stereo unspecified) gave a melting point of 114 to 115 °C.

`CSc1nc(NCCCn2ccnc2)c(C#N)c(N2CCc3ccccc3CC2)n1` yielded a melting point of 131 to 134 °C.

`COC(=O)CC(NC(=O)C1CC=CCC1)C(C)=O` (stereo unspecified) returned a melting point of 69 to 70 °C.

For `CC(C)(C)c1ccc(N2CCNCC2)cc1`, the melting point was in the range of 48 to 52 °C.

In turn, `CCCCc1c(/C=C/C(=O)Oc2ccc([N+](=O)[O-])cc2)cc(OC)c2ccc(OC)cc12` returned a melting point of 144 to 146 °C.

As to `CCC(=O)NCC=C1CCc2ccc3nc(C)oc3c21`, the melting point was in the range of 214 to 216 °C.

Take `COc1cc2ncc(C#N)c(Nc3c(C)cccc3O)c2cc1OC`: the melting point was 245 to 247 °C.

For `CCCc1ccc(S(=O)(=O)Nc2ccc3nc(C)c(C)nc3c2)cc1`, the melting point lay within 198 to 199 °C.

In the case of `Cc1c(-c2ccc(OC(C)C)cc2)n(Cc2ccc(OCCN3CCCCC3)cc2)c2ccc(O)cc12`, the melting point lay in the range of 120 to 125 °C.

On to `N#Cc1cnn(-c2ccc(Cl)c(Cl)c2Cl)c1Cl`, for which the melting point lay within 124 to 126 °C.

As for `CC1O[C@@](Cn2cncn2)(c2ccc(Cl)cc2Cl)[C@@H](C)N1S(C)(=O)=O` (relative stereo), the melting point was 160 to 170 °C.

As to `C[C@@H](NC(=O)c1cnn(-c2ccc(Cl)cc2)c1C(C)(C)C)[C@](O)(Cn1cncn1)c1ccc(F)cc1F`, the melting point lay within 191 to 192 °C.

Molecule `Cc1c(-c2ccc(F)cc2)[nH]c(N2CCOCC2)c1C#N` yielded a melting point of 245 to 247 °C.

Molecule `CCC(Oc1ccc2ncccc2c1)C(=O)O` (stereo unspecified) came in with a melting point of 78 to 80 °C.

Take `Cc1ccc(C=Cc2ccc(-c3ccccc3)s2)cc1`: the melting point is 159 to 160 °C.

Take `CCOC(=O)C(=CNCC1CCCO1)C(=O)c1ccc(Br)cc1Cl` (stereo unspecified): the melting point came out at 136 °C.

Take `O=C1CCCc2[nH]c3cc(F)ccc3c21`: the melting point is 231 to 233 °C.

In the case of `COc1ccc2c(c1)COc1ccc(CC(=O)O)cc1C2=O`, the melting point lay within 163 to 165 °C.

In the case of `CCOCc1nc2c(N)nc3cc(OCCCc4cccs4)ccc3c2n1CC(C)(C)NS(C)(=O)=O`, the melting point fell in the range of 202 to 203 °C.

In the case of `OCC1OC(n2cnc3c(NCC4(c5ccccc5)CCCCC4)ncnc32)C(O)C1O` (stereo unspecified), the melting point was 87 to 89 °C.

For `CCC1(CCCCCBr)C(=O)Nc2ccc(C)cc21` (stereo unspecified), the melting point lay in the range of 72 to 73 °C.

In turn, `Cc1nc2cc(Br)ccc2c(=O)n1C1CCC(=O)NC1=O` (stereo unspecified) displayed a melting point of 315 to 317 °C.

Regarding `O=C(OCC1CCC1)c1ncc2n1-c1cccc(Br)c1C(=O)N1CCC[C@@H]21`, the melting point is 170 to 172 °C.

Molecule `C[Si](C)(C)CCOC1OC(COC(=O)c2ccccc2)C(O)C(O)C1N=[N+]=[N-]` (stereo unspecified) displayed a melting point of 55 to 57 °C.

`CC(=O)c1cc2c(s1)CCc1cc(=O)n(-c3ccc(C)cc3)nc1-2` displayed a melting point of 240 to 242 °C.

Consider `O=C(NC1CCCCC1)N1C(=O)C2(CCCCC2)NC12CCCCC2`, for which the melting point was in the range of 106 to 109 °C.

For `O=C1c2cccc(OC(F)=C(F)F)c2C(=O)N1c1ccc(OC(F)=C(F)F)cc1`, the melting point came to 172 °C.

Turning to `CSc1nc(N)nc(-c2ccccc2)c1-c1ccc(=O)n(C)n1`, the melting point was in the range of 233 to 235 °C.

Molecule `CCC(=O)NC[C@H]1CN(c2ccc(C3CCS(=O)(=O)CC3)c(F)c2)C(=O)O1` returned a melting point of 200 to 201 °C.

Consider `O=C(c1ccccc1)c1ccc(OCc2cccnc2)cc1O`, for which the melting point was in the range of 88 to 90 °C.

`CN1C(=O)CCc2cc(Cl)ccc21` gave a melting point of 76 to 78 °C.

`CCCCc1c(Cl)nc(C)nc1Cl`: the melting point lay in the range of 50 to 51 °C.

The molecule `CCOCCn1c(N2CCCN(CCC3(c4ccccc4)CCN(C(=O)c4cc(NC(C)=O)ccc4OC)C3)CC2)nc2ccccc21` (stereo unspecified) came in with a melting point of 145 to 150 °C.

With `CCOc1c(Br)cc(C(C)(C)C)cc1C(C)(C)C`, the melting point fell in the range of 55 to 56 °C.

The molecule `CC(C)(C)n1cnc(-c2ccc(F)cc2)c1-c1ccncc1` showed a melting point of 199 °C.

As for `OC(c1ccc(Cl)cc1)(c1ccc(Cl)cc1)c1cn[nH]c1`, the melting point is 135 to 137 °C.

On to `CC(C)(O)Cc1cccc(O)c1`, for which the melting point lay within 91 to 94 °C.

Turning to `CCOCN(C(=O)CCl)c1c(C)cccc1[N+](=O)[O-]`, the melting point lay in the range of 96 to 98 °C.

On to `CC(=O)c1cnc(O)c(Cl)c1`, for which the melting point fell in the range of 188 to 189 °C.

As for `CC(=O)Nc1cc(N)cc([N+](=O)[O-])c1`, the melting point fell in the range of 204 to 205 °C.

In turn, `CC(=O)NC1CCN(CCCCl)CC1` displayed a melting point of 74 to 77 °C.

`CC(C)(C)NC(=O)N1Cc2c(-c3ccc(F)cc3)ncn2-c2ccccc21` registered a melting point of 241 to 244 °C.

As to `CCNC(=O)ON=C1N=C(C)C(C)(C)S1`, the melting point is 84 to 86 °C.

In turn, `CCCCCNC(=O)[C@H](Cc1ccc(N(CC(=O)O)CC(=O)O)cc1)NC(=O)[C@H](Cc1ccccc1)NC(=O)OC(C)(C)C` returned a melting point of 151 to 152 °C.

Take `CCOC(=O)NC(C(=O)OC)=C1CN=C(c2ccccc2F)c2cc(Cl)ccc2N1`: the melting point fell in the range of 188 to 191 °C.
